Results reported in patent publication US20030134901A1, “Lipoxin compounds and their use in treating cell proliferative disorders” (priority 1993, published 2003).

How the values were obtained:
[1] = system: PLD activity in human PMN; assay: PLD activity (PEt formation) in PMN; format: cell-based; conditions: PMN; IAP at LXA4 10^−9-10^−10 M, staurosporine (100 nM) at LXA4 10^−7 M
Protocol: PMN, platelet and RBC isolation from peripheral blood. Human PMN were obtained by the modified Böyum method (Böyum, A. (1968) Scan. J. Clin. Lab. Invest. 21:77) from fresh heparinized blood after venipuncture of healthy normal volunteers. Suspensions in PBS were monitored for cell number and viability by their ability to exclude trypan blue both exceeding 98%. Red blood cells were obtained from 10 ml of heparinized blood after three centrifugations in PBS (2,500 rpm, 10 min at 21° C.). Blood drawn in acidic citrate dextrose (9:1, v/v) was used to isolate platelets as previously described (Serhan, C. N. and Sheppard, K.-A. (1990) J. Clin. Invest. 85:772). PLD activity. Human PMN and HL-60 cells (50×10^6 cells/ml) prepared as above were incubated with ^3H-myristic acid or ^3H-palmitic acid (8 μCi/50×10^6 cells) for 40-60 min at 37° C. in PBS. […] Incubations were carried out at 37° C. (10 ×10^6 cells/ml PBS). […] M. et al. (1989) J. Biol. Chem. 264:17069. At indicated times, incubations were stopped by adding 3.5 ml of ice cold CHCl3/MeOH (2/5, v/v) containing 1-^14C-arachidonic acid (5,000 cpm) used here as internal standard to quantitate extraction recoveries. Samples were extracted using a modified Bligh and Dyer extraction as in (Serhan, C. N. and Sheppard, K. -A. (1990) J. Clin. Invest. 85:772). Organic phases, concentrated in 50 μL of CHCl3/MeOH (8/2, v/v), were spotted onto linear […] TLC plates developed with the organic phase of ethyl acetate[…][…] (110/50/20/100, v/v/v/v) for 50 min ([…]. et al.(1989) J. Biol. Chem. 264:17069). […] Regions corresponding to PA, PEt, and internal standards were scraped and quantified by liquid scintillation counting. […] In these experiments, PA was resolved using ethyl acetate[…][…]) as solvent system ([…]. et al. (1989) Anal. […] Impact of IAP and staurosporine on LXA4-induced PLD activity. PLD activity assays, performed as described (vide supra), were preceded by cell exposure to either IAP or staurosporine. […]

[2] = system: PLD activity in differentiated HL-60 cells; assay: PLD activity (PEt formation) in differentiated HL-60 cells; format: cell-based, human; conditions: HL-60 cells; IAP (300 ng/ml) at LXA4 10^−9-10^−10 M, staurosporine (100 nM) at LXA4 10^−7 M
Protocol: Cell cultures and differentiation. HL-60 cells were seeded in RPMI medium supplemented with 100 U/ml penicillin, 100 μg/ml streptomycin, and 10% fetal calf serum (Hyclone, Logan, Utah), incubated at 37° C. with 5% CO2 atmosphere in 250 ml flasks. Individual flasks containing ˜[…] next received dimethyl sulfoxide (DMSO) (1.12% v/v, 120 h) or retinoic acid (RA) (1 μM, 120 h) or phorbol myristate acetate (PMA) (20 nM, 48 h). Before performing binding assays, cells were washed twice in phosphate buffered saline (PBS), Ca^2+- and Mg^2+-free, enumerated and suspended at 20×10^6 cells/ml in Tris buffer (10 mM), pH 7.4 (Fiore, S. et al.(1992) J. Biol. Chem. 267:16168). Nitro blue tetrazolium reduction was performed to monitor induction of polymorphonuclear phenotype as in (Imaizumi, M. and Breitman, T. R. (1986) Blood 67:1273), and cell adherence was determined for induction of macrophage-like phenotype (Collins, S. J. (1987) Blood 70:1273). Human umbilical vein endothelial cells (HUVEC) maintained in culture third passage were obtained from Dr. M. Gimbrone (Brigham and Women's Hospital Department of Pathology).
PLD activity. Human PMN and HL-60 cells (50×10^6 cells/ml) prepared as above were incubated with ^3H-myristic acid or ^3H-palmitic acid (8 μCi/50×10^6 cells) for 40-60 min at 37° C. in PBS. Cell uptake ranged between 60-80% of added label, 7.1±4.2% (n=10; mean ±S.D.) and 32.6±10.3% (n=6; mean ±S.D.) into total phospholipid classes of PMN and HL-60 cells, respectively. Incubations were carried out at 37° C. (10 ×10^6 cells/ml PBS). […] At indicated times, incubations were stopped by adding 3.5 ml of ice cold CHCl3/MeOH (2/5, v/v) containing 1-^14C-arachidonic acid (5,000 cpm) used here as internal standard to quantitate extraction recoveries. […] Regions corresponding to PA, PEt, and internal standards were scraped and quantified by liquid scintillation counting. […] All values reported for PEt formation in Tables 4 and 5 were calculated by subtracting the dpm obtained in the presence of […]. […]

A549 cells = assay: A549 cell proliferation, MTT assay; format: cell-based, human; conditions: Homo sapiens, A549
Protocol: A microculture 3,(4,5-dimethylthiazoyl-2-yl) 2,5 (diphenyl-tetrazolium bromide) (MTT) assay, (Marshall, N. J., et al. (1995) A critical assessment of the use of microculture tetrazolium assays to measure cell growth and function. Growth Regul. 5: 69-84.), was used to examine the actions of LXs and other eicosanoids on cell proliferation. A549 cells and fibroblasts from exponential-phase maintenance cultures were counted and dispensed within replicate 96-well culture plates in 100 μl volumes of medium (˜2000 cells/well). Following 24 hours at 37° C., the culture medium was removed, and fresh medium (100 μl) containing either the compounds (5-1000 nM) or vehicle (medium plus 0.15% ethanol) was added to 4 replicates for each condition studied and the culture plates were then incubated for up to 96 hours at 37° C. in a 5% CO2 atmosphere. At the end of this period, 25 μl of freshly prepared MTT in HBSS (5 mg/ml) was added to the wells and the plates were incubated for 4 hours at 37° C. Dye solution was aspirated, wells were washed once with HBSS and dye taken up by the cells was extracted in 100 μl of isopropyl alcohol:1 N HCl (96:4, v/v) and quantitated at 570 nm using a microplate reader (Molecular Devices, Menlo Park, Calif.). In some experiments, cells were grown in 12-well culture plates, treated as above and enumerated using a Neubauer hemocytometer. Viability was assessed routinely using trypan blue exclusion assay. For the A549 cells and fibroblasts, a linear relation was established for the MTT values and cell number within the range of the experiments shown (r=0.995, P<0.005). A549 cells grown for 72 hours in the presence of the compounds (5-1000 nM) or vehicle (0.15% EtOH) were lysed with 0.25 N NaOH and the cellular protein content was determined by applying the Bio-Rad (Richmond, Calif.) microassay method using bovine serum albumin as standard. The mean cellular protein content in resting A549 cells was 46.6±1.5 pg/cell.

human skin fibroblasts = assay: Fibroblast proliferation, MTT assay; format: cell-based; conditions: Homo sapiens, Skin fibroblast; 100 nM, n=3
Text: Human type II epithelial A549 cells from human lung carcinoma and normal human skin fibroblast (breast) were obtained from the American Type Culture Collection (Rockville, Md.). The A549 cell line originated from a human alveolar cell carcinoma and was a useful cell line because it was easily assessable and could be maintained in culture without contaminating tissue macrophages. (Lieber, M., et al (1976) A continuous tumor-cell line from a human lung carcinoma with properties of type II alveolar epithelial cells. Int. J Cancer Fibroblasts were utilized within their limited window of viability and their passage numbers were recorded (results are reported for cells from 3-5 passages). Epithelial A549 cells were seeded into T-75 cm^2 tissue culture flasks and maintained in F-12K medium supplemented with 10% heat-inactivated FBS, penicillin (50 U/mL) and streptomycin (50 (g/mL). Human PMN from healthy donors who had not taken ASA or other medications for at least two weeks were obtained by Ficoll-Hypaque gradient centrifugation and dextran sedimentation, (Böyum A. (1968) Isolation of mononuclear cells and granulocytes from human blood. […] Viability of A549 cells and PMN was determined by their ability to exclude trypan blue and were 95±2 and 97±1%, respectively.
A microculture 3,(4,5-dimethylthiazoyl-2-yl) 2,5 (diphenyl-tetrazolium bromide) (MTT) assay, (Marshall, N. J., et al. (1995) A critical assessment of the use of microculture tetrazolium assays to measure cell growth and function. Growth Regul. 5: 69-84.), was used to examine the actions of LXs and other eicosanoids on cell proliferation. A549 cells and fibroblasts from exponential-phase maintenance cultures were counted and dispensed within replicate 96-well culture plates in 100 μl volumes of medium (˜2000 cells/well). […] Dye solution was aspirated, wells were washed once with HBSS and dye taken up by the cells was extracted in 100 μl of isopropyl alcohol:1 N HCl (96:4, v/v) and quantitated at 570 nm using a microplate reader (Molecular Devices, Menlo Park, Calif.). […]

Row | IC50 (A549 cells; MTT assay, 72 hours, read-out: half maximum inhibition (IC50) of A549 cell proliferation) | Compound | effect on LXA4-mediated PLD activity [1] | effect on LXA4-mediated PLD activity [2] | inhibition at 0.1 µM (A549 cells; 10^−7 M, 72 hours at 37° C., mean ± SEM, 3 to 7 experiments) | inhibition at 0.1 µM (human skin fibroblasts)
1 | – | CN[C@@H]1C[C@H]2O[C@@](C)([C@@H]1OC)n1c3ccccc3c3c4c(c5c6ccccc6n2c5c31)C(=O)NC4 [staurosporine] | inhibited by staurosporine | inhibited by staurosporine | – | –
2 | – | IAP: Islet activating protein | sensitive to IAP treatment | sensitive to IAP treatment | – | –
3 | ~7 nM | C[C@@H]1C[C@H]2[C@@H]3CCC4=CC(=O)C=C[C@]4(C)[C@@]3(F)[C@@H](O)C[C@]2(C)[C@@]1(O)C(=O)CO [Dexamethasone] | – | – | 42.1 ± 5.4% | 29.7%
